For data set [1], the target named is T1, VHL (Homo sapiens, UniProt P40337).
T1 construct: expressed in transfected cells
Nature of the data set: VHL HEK-293 BRET Assay (VHL NanoBRET Target Engagement Assay). The data set is classed as cell-based. The settings on record: for IC50: HEK 293 RT VHL-NanoLuc stable cells, 1 uM tracer, 2 hours, geometric mean where more than one measurement, read-out: VHL binding in cells (HEK293 nanoBRET); for Ratio cell permeability shift: ratio not defined. As to the method:
(§1) The VHL NanoBRET™ Target Engagement Assay analyzes the apparent affinity of test compounds for VHL in cells by competitive displacement of a VHL NanoBRET™ tracer reversibly bound to a NanoLuc® VHL fusion protein stably expressed in the cells.
(§2) 50 nL of control compound (10 mM; parental unlabeled VHL antagonist; see structure below) and 50 nL of DMSO (negative control) were dispensed into the appropriate control wells. DMSO was backfilled to a final volume of 50 nL as required. […] Max Signal control wells consisted of DMSO only treated wells. Minimum Signal control wells contained of 10 uM parental unlabeled VHL antagonist (control compound—see structure below). […] Background Signal control wells were prepared without tracer for background correction steps.
(§3) The raw BRET ratio values were calculated by dividing the acceptor emission value (610 nm) by the donor emission value (460 nm) for each sample. To correct for background, the BRET ratio in the absence of tracer (average of no-tracer control samples) was subtracted from the BRET ratio of each sample. Raw BRET units were converted to milliBRET units (mBU) by multiplying each raw BRET value by 1,000. The normalized NanoBRET™ signal was calculated relative to the Max Signal control wells (DMSO treated control wells) and the Minimum Signal control wells. Percentage inhibition was calculated relative to the Minimum Signal control and Maximum Signal control wells. IC50 values were derived by four parameter curve fitting using the Robust method.
In general terms: Bioluminescence resonance energy transfer reports proximity on the nanometre scale.

For data set [2], the target named is T1, VHL. Nature of the data set: VHL nanoBRET (+ Digitonin). The data set is classed as cell-based. As to the method: as §1, §2, §3

T1 sequence (P40337 whole entry): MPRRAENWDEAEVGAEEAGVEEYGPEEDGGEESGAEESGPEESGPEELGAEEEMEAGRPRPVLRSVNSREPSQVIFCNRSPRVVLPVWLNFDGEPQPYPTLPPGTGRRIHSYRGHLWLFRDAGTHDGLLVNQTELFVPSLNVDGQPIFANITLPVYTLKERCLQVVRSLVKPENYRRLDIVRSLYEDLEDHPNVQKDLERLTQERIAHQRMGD

Broadly, the EC50 is the concentration needed to bring the measured effect to its halfway point. Low readings indicate an effect from little substance, high ones a need for much substance. `Cc1ncsc1-c1ccc([C@H](C)NC(=O)[C@@H]2C[C@@H](O)CN2C(=O)[C@@H](n2cc(C3CC3)nn2)C(C)(C)C)cc1` [Example S18, (2S,4R)-1-((S)-2-(4-cyclopropyl-1H-1,2,3-triazol-1-yl)-3,3-dimethylbutanoyl)-4-hydroxy-N—((S)-1-(4-(4-methylthiazol-5-yl)phenyl)ethyl)pyrrolidine-2-carboxamide]: on VHL [1], the IC50 came out at 10 nM and the “Ratio cell permeability shift” value is 0.85. Moreover, on VHL [2], the midpoint of the response, the EC50, lay at 10 nM.
Turning to `Cc1ncsc1-c1ccc([C@H](C)NC(=O)[C@@H]2C[C@@H](O)CN2C(=O)[C@H](C2CCCCC2)n2cc(C3CC3)nn2)cc1` [Example S19, (2S,4R)-1-((S)-2-cyclohexyl-2-(4-cyclopropyl-1H-1,2,3-triazol-1-yl)acetyl)-4-hydroxy-N—((S)-1-(4-(4-methylthiazol-5-yl)phenyl)ethyl)pyrrolidine-2-carboxamide], at VHL [1], the IC50 is less than 5 nM and the “Ratio cell permeability shift” value is on record as roughly 1. Also, the EC50 at VHL [2] was less than 5 nM.
Take `Cc1ncsc1-c1ccc([C@H](C)NC(=O)[C@@H]2C[C@@H](O)CN2C(=O)[C@@H](n2cc(C3CC3)nn2)C23CC4CC(CC(C4)C2)C3)cc1` [Example S20, (2S,4R)-1-((2S)-2-(adamantan-1-yl)-2-(4-cyclopropyl-1H-1,2,3-triazol-1-yl)acetyl)-4-hydroxy-N—((S)-1-(4-(4-methylthiazol-5-yl)phenyl)ethyl)pyrrolidine-2-carboxamide]: the “Ratio cell permeability shift” value on VHL [1] worked out at 0.54. The same compound gave an EC50 on VHL [2] of 10 nM.
For `CCC(C)(C)[C@@H](C(=O)N1C[C@H](O)C[C@H]1C(=O)N[C@@H](C)c1ccc(-c2scnc2C)cc1)n1cc(C2CC2)nn1` [Example S21, (2S,4R)-1-((S)-2-(4-cyclopropyl-1H-1,2,3-triazol-1-yl)-3,3-dimethylpentanoyl)-4-hydroxy-N—((S)-1-(4-(4-methylthiazol-5-yl)phenyl)ethyl)pyrrolidine-2-carboxamide], in that order: 0.67 and 10 nM.
Take `Cc1ncsc1-c1ccc(C(C)NC(=O)[C@@H]2C[C@@H](O)CN2C(=O)[C@@H](n2cc(C3CC3)nn2)C(C)(C)C)c(Cl)c1` (stereo partly drawn) [Example S22, (2S,4R)—N-(1-(2-chloro-4-(4-methylthiazol-5-yl)phenyl)ethyl)-1-((S)-2-(4-cyclopropyl-1H-1,2,3-triazol-1-yl)-3,3-dimethylbutanoyl)-4-hydroxypyrrolidine-2-carboxamide]: at VHL [1], the IC50 stood at 10 nM and the “Ratio cell permeability shift” value turned out to be 0.72. Also, the concentration giving a half-maximal response (EC50) on VHL [2] is 10 nM.
As for `Cc1ncsc1-c1ccc(C(C)NC(=O)[C@@H]2C[C@@H](O)CN2C(=O)[C@@H](n2cc(C3CC3)nn2)C23CC4CC(CC(C4)C2)C3)c(Cl)c1` (stereo partly drawn) [Example S23, (2S,4R)-1-((2S)-2-(adamantan-1-yl)-2-(4-cyclopropyl-1H-1,2,3-triazol-1-yl)acetyl)-N-(1-(2-chloro-4-(4-methylthiazol-5-yl)phenyl)ethyl)-4-hydroxypyrrolidine-2-carboxamide], on VHL [1], the IC50 stood at 20 nM and the “Ratio cell permeability shift” value is 0.42. The EC50 at VHL [2] was found to be 40 nM.
Turning to `Cc1ncsc1-c1ccc(CNC(=O)[C@@H]2C[C@@H](O)CN2C(=O)[C@@H](n2cc(C3CC3)nn2)C(C)(C)c2ccccc2)cc1` [Example S26, (2S,4R)-1-((S)-2-(4-cyclopropyl-1H-1,2,3-triazol-1-yl)-3-methyl-3-phenylbutanoyl)-4-hydroxy-N-(4-(4-methylthiazol-5-yl)benzyl)pyrrolidine-2-carboxamide], on VHL [1], the IC50 came to 20 nM and the “Ratio cell permeability shift” value is recorded as 1.02. At VHL [2], this compound came in with an EC50 of 20 nM.
For `Cc1ncsc1-c1ccc(CNC(=O)[C@@H]2C[C@@H](O)CN2C(=O)[C@@H](n2cc(C3(C(F)(F)F)CC3)nn2)C(C)(C)C)cc1` [Example S28, (2S,4R)-1-((S)-3,3-dimethyl-2-(4-(1-(trifluoromethyl)cyclopropyl)-1H-1,2,3-triazol-1-yl)butanoyl)-4-hydroxy-N-(4-(4-methylthiazol-5-yl)benzyl)pyrrolidine-2-carboxamide], at VHL [1], the IC50 turned out to be 40 nM and the “Ratio cell permeability shift” value worked out at 0.98. This compound also had a 50% effective concentration (EC50) at VHL [2] of 40 nM.
With `Cc1ncsc1-c1ccc(CNC(=O)[C@@H]2C[C@@H](O)CN2C(=O)[C@@H](n2cc(C3(C)CC3)nn2)C(C)(C)C)cc1` [Example S29, (2S,4R)-1-((S)-3,3-dimethyl-2-(4-(1-methylcyclopropyl)-1H-1,2,3-triazol-1-yl)butanoyl)-4-hydroxy-N-(4-(4-methylthiazol-5-yl)benzyl)pyrrolidine-2-carboxamide], at VHL [1], the IC50 turned out to be 10 nM and the “Ratio cell permeability shift” value was found to be 1.04. The same compound showed an EC50 on VHL [2] of 10 nM.
`Cc1cnnn1[C@H](C(=O)N1C[C@H](O)C[C@H]1C(=O)N[C@H](Cc1ccc(-c2ccccc2)cc1)C(N)=O)C(C)C` [Example S32, (2S,4R)—N—((R)-3-([1,1′-biphenyl]-4-yl)-1-amino-1-oxopropan-2-yl)-4-hydroxy-1-((S)-3-methyl-2-(5-methyl-1H-1,2,3-triazol-1-yl)butanoyl)pyrrolidine-2-carboxamide]: at VHL [1], the IC50 was determined as 5400 nM and the “Ratio cell permeability shift” value is 1.48. This compound also gave an EC50 at VHL [2] of 3640 nM.
For `Cc1nnn([C@H](C(=O)N2C[C@H](O)C[C@H]2C(=O)N[C@H](Cc2ccc(-c3ccccc3)cc2)C(N)=O)C(C)C)c1C` [Example S37, (2S,4R)—N—((R)-3-([1,1′-biphenyl]-4-yl)-1-amino-1-oxopropan-2-yl)-1-((S)-2-(4,5-dimethyl-1H-1,2,3-triazol-1-yl)-3-methylbutanoyl)-4-hydroxypyrrolidine-2-carboxamide], in that order: 1660 nM, 1.43 and 1160 nM.
`CC(C)[C@@H](C(=O)N1C[C@H](O)C[C@H]1C(=O)N[C@H](Cc1ccc(-c2ccccc2)cc1)C(N)=O)n1cc(-c2cccs2)nn1` [Example S38, (2S,4R)—N—((R)-3-([1,1′-biphenyl]-4-yl)-1-amino-1-oxopropan-2-yl)-4-hydroxy-1-((S)-3-methyl-2-(4-(thiophen-2-yl)-1H-1,2,3-triazol-1-yl)butanoyl)pyrrolidine-2-carboxamide]: at VHL [1], the IC50 was found to be 190 nM and the “Ratio cell permeability shift” value is recorded as 1.12. At VHL [2], this compound had an EC50 of 170 nM.
For `CC(C)[C@@H](C(=O)N1C[C@H](O)C[C@H]1C(=O)N[C@H](Cc1ccc(-c2ccccc2)cc1)C(N)=O)n1cc(-c2ccco2)nn1` [Example S39, (2S,4R)—N—((R)-3-([1,1′-biphenyl]-4-yl)-1-amino-1-oxopropan-2-yl)-1-((S)-2-(4-(furan-2-yl)-1H-1,2,3-triazol-1-yl)-3-methylbutanoyl)-4-hydroxypyrrolidine-2-carboxamide], in that order: 110 nM, 0.93 and 110 nM.
For `Cc1ncsc1-c1ccc([C@@H](NC(=O)[C@@H]2C[C@@H](O)CN2C(=O)[C@@H](n2cc(C3CC3)nn2)C(C)(C)C)C(F)(F)F)cc1` [Example S40, (2S,4R)-1-((S)-2-(4-cyclopropyl-1H-1,2,3-triazol-1-yl)-3,3-dimethylbutanoyl)-4-hydroxy-N—((R)-2,2,2-trifluoro-1-(4-(4-methylthiazol-5-yl)phenyl)ethyl)pyrrolidine-2-carboxamide], in that order: 80 nM, 0.74 and 110 nM.
For `C[C@H](NC(=O)[C@@H]1C[C@@H](O)CN1C(=O)[C@@H](n1cc(C2CC2)nn1)C(C)(C)C)c1ccc(-c2ccccc2F)cc1` [Example S41, (2S,4R)-1-((S)-2-(4-cyclopropyl-1H-1,2,3-triazol-1-yl)-3,3-dimethylbutanoyl)-N—((S)-1-(2′-fluoro-[1,1′-biphenyl]-4-yl)ethyl)-4-hydroxypyrrolidine-2-carboxamide], in that order: 10 nM, 0.72 and 10 nM.
Regarding `C[C@@H](NC(=O)[C@@H]1C[C@@H](O)CN1C(=O)[C@@H](n1cc(C2CC2)nn1)C(C)(C)C)c1ccc(-c2ccccc2F)cc1` [Example S42, (2S,4R)-1-((S)-2-(4-cyclopropyl-1H-1,2,3-triazol-1-yl)-3,3-dimethylbutanoyl)-N—((R)-1-(2′-fluoro-[1,1′-biphenyl]-4-yl)ethyl)-4-hydroxypyrrolidine-2-carboxamide], on VHL [1], the IC50 was found to be 1100 nM and the “Ratio cell permeability shift” value amounted to 0.71. Moreover, the 50% effective concentration (EC50) at VHL [2] was 1540 nM.
For `CC(C)(C)[C@@H](C(=O)N1C[C@H](O)C[C@H]1C(=O)NCc1ccc(-c2ccccc2F)cc1)n1cc(C2CC2)nn1` [Example S43, (2S,4R)-1-((S)-2-(4-cyclopropyl-1H-1,2,3-triazol-1-yl)-3,3-dimethylbutanoyl)-N-((2′-fluoro-[1,1′-biphenyl]-4-yl)methyl)-4-hydroxypyrrolidine-2-carboxamide], in that order: 30 nM, 1.03 and 30 nM.

These data come from US20230391766A1, “1-(2-(4-CYCLOPROPYL-1H-1,2,3-TRIAZOL-1-YL)ACETYL)-4-HYDROXY-N-(BENZYL)PYRROLIDIN E-2-CARBOXAMIDE DERIVATIVES AS VHL INHIBITORS FOR THE TREATMENT OF ANEMIA AND CANCER” (Genentech, Inc., priority 2020, published 2023).
